Read-outs that look alike come from different tables or passages of the source.
How the values were obtained:
[1] = system: E. faecalis; test: MIC against E. faecalis; format: cell-based; conditions: for MIC: Enterococcus faecalis, Table 8, read-out: MIC
Method: The MRS inhibitor 4 alone and in combination with mupirocin (mupirocin salt and 1:1 combination) were tested against a collection of Gram-positive pathogens.
(§1) MRSi compound 5 alone and in combination with mupirocin was tested recent clinical isolates of E. faecalis (n=28) and E. faecium (n=23). Both the acetate salt and mupirocinate salts of MRSi compound 5 maintained potent activity against vancomycin-susceptible and—resistant enterococci (Tables 8, 9, and 10).

[2] = system: S. aureus; test: MIC against S. aureus strains and clinical isolates (broth microdilution); format: cell-based, Staphylococcus aureus; conditions: for MIC: read-out: MIC
Method: were tested against a collection of clinical isolates of S. aureus including strains that were multi-resistant to mupirocin and to other agents such as gentamicin and oxacillin.
The acetate and mupirocin salts of the MRS inhibitor compound 5 were tested against a collection of both low and high-level mupirocin resistant clinical isolates of S. aureus (Table 6).
The bacterial strains were tested for susceptibility to mupirocin and MRSi compound 2 using the broth microdilution method in accordance with NCCLS guideline to determine their MICs.
Briefly, the MIC and checkerboard titration assays were performed with strains in microtiter trays with cation-supplemented Mueller-Hinton broth (Difco). Inocula were prepared by suspending growth from blood agar plates in sterile saline to a density equivalent to that of a 0.5 McFarland standard and were diluted […] to produce a final inoculum of 5×10^5 CFU/ml. The trays were incubated aerobically overnight. Standard quality control strains were included with each run. Fractional inhibitory concentrations (FICs) were calculated as the MIC of drug A or B in combination/MIC of drug A or B alone, and the FIC index was obtained by adding the two FICs. FIC indices were interpreted as synergistic if the values were ≦0.5, additive or indifferent if the values were >0.5 to 4, and antagonistic if the values were >4.0.

[3] = system: E. faecium; test: MIC against E. faecium; format: cell-based; conditions: Enterococcus faecium, ATCC33667; Table 8; E. faecium ATCC 33667; read-out: MIC
Method: as §1

[4] = all S. aureus isolates of Table 6
[5] = recent clinical isolates of E. faecalis, ALL (28)

Molecule: O=c1cc(NC[C@H]2CCC[C@@H]2NCc2ccc(Cl)c(Cl)c2)[nH]c2ccccc12 [MRSi cmpd 3, 2-{[(1R, 2S)-2-(3,4-Dichlorobenzylamino)cyclopentylmethyl]amino}-1H-quinolin-4-one]
- MIC ([1]; ATCC 51299 / VRE, E. faecalis ATCC 51299 (VRE)): 0.5 µg/mL
- MIC ([1]; E. faecalis 1): 0.12 µg/mL
- MIC ([1]; E. faecalis 7): 0.5 µg/mL
- MIC ([2]; Staphylococcus aureus, ATCC43300, S. aureus ATCC 43300 (ORSA)): 4 µg/mL
- MIC ([2]; Staphylococcus aureus, NRS 1 / VISA, S. aureus NRS1 (VISA)): 4 µg/mL
- MIC ([2]; Staphylococcus aureus, NRS107, S. aureus NRS107 (HL Mup rest.)): 1 µg/mL
- MIC ([2]; Staphylococcus aureus, S. aureus 10-420 (LL Mup. Rest.)): 2 µg/mL
- MIC ([2]; Staphylococcus aureus, S. aureus 14-354 (LL Mup. Rest.)): 4 µg/mL
- MIC ([2]; Staphylococcus aureus, S. aureus 25-670 (HL Mup. Rest.)): 4 µg/mL
- MIC ([2]; Staphylococcus aureus, S. aureus 31-1334 (LL Mup Rest.)): 2 µg/mL
- MIC ([2]; Staphylococcus aureus, S. aureus 36-1298 (LL Mup. Rest.)): 1 µg/mL
- MIC ([2]; Staphylococcus aureus, S. aureus 87-2797 (HL Mup. Rest.)): 4 µg/mL
- MIC ([2]; Staphylococcus aureus, S. aureus 87-2797 (Mup. Susc.)): 2 µg/mL
- MIC ([2]; Staphylococcus aureus, S. aureus 101-100 (Mup. Susc.)): 2 µg/mL
- MIC ([2]; Staphylococcus aureus, S. aureus LZ1 (HL Mup rest.)): 2 µg/mL
- MIC ([2]; Staphylococcus aureus, S. aureus LZ6 (HL Mup rest.)): 2 µg/mL
- MIC ([2]; Staphylococcus aureus, S. aureus LZ8 (LL Mup. Rest.)): 4 µg/mL
- MIC ([2]; Staphylococcus aureus, S. aureus LZ9): 2 µg/mL
- MIC ([2]; Staphylococcus aureus, S. aureus LZ10): 2 µg/mL
- MIC ([2]; Staphylococcus aureus, S. aureus Miles Hall): 2 µg/mL
- MIC ([2]; Staphylococcus aureus, S. aureus Oxford): 2 µg/mL
- MIC90 ([2]; Staphylococcus aureus, all S. aureus strains of Table 1, read-out: MIC 90): 4 µg/mL
- MIC Range ([2]; all S. aureus strains of Table 1 (mupirocin-susceptible and -resistant)): 1 to 4 µg/mL
- MIC [3]: 0.03 µg/mL

Molecule: N-(4-bromo-5-(1-fluorovinyl)-3-methylthiophen-2-ylmethyl)-N′(1H-quinolin-4-one)propane-1,3-diamine Mupirocinate [MRSi Cmpd 5 mupirocinate]
- MIC50 [2, 4]: 0.12 µg/mL
- MIC90 [2, 4]: 1 µg/mL

Molecule: C=C(F)c1sc(CNCCCNc2cc(=O)c3ccccc3[nH]2)c(C)c1Br [MRSi Cmpd 5 mupirocinate, N-(4-bromo-5-(1-fluorovinyl)-3-methylthiophen-2-ylmethyl)-N′(1H-quinolin-4-one)propane-1,3-diamine Mupirocinate]
- MIC90 ([1]; E. faecalis, Van-R(11)): 0.03 µg/mL
- MIC90 ([1]; E. faecalis, Van-S (16)): 0.03 µg/mL
- MIC90 [1, 5]: 0.03 µg/mL
- Mode (MIC) [1, 5]: 0.03 µg/mL

Source: US20040224981A1, “Antibacterial methods and compositions” (priority 2003, published 2004)
